Measured values: ChEMBL document CHEMBL4842362, “From virtual screening hits targeting a cryptic pocket in BACE-1 to a nontoxic brain permeable multitarget anti-Alzheimer lead with disease-modifying and cognition-enhancing effects” (Eur J Med Chem, 2021)
Converted amounts (≈) assume the structure as drawn. The source made the active and inactive calls. No cut-off for these calls is given here.

Assays:
Cholinesterase [1] = molecular target: T1, Cholinesterase (Homo sapiens, UniProt P06276); test: Potency index, ratio of rhein-huprine hybrid IC50 to test compound IC50 for inhibition of human serum BChE using butyrylthiocholine iodide as a substrate preincubated for 20 mins followed by substrate addition by spectrophotometric analysis; format: cell-free
T1 sequence (P06276 whole entry): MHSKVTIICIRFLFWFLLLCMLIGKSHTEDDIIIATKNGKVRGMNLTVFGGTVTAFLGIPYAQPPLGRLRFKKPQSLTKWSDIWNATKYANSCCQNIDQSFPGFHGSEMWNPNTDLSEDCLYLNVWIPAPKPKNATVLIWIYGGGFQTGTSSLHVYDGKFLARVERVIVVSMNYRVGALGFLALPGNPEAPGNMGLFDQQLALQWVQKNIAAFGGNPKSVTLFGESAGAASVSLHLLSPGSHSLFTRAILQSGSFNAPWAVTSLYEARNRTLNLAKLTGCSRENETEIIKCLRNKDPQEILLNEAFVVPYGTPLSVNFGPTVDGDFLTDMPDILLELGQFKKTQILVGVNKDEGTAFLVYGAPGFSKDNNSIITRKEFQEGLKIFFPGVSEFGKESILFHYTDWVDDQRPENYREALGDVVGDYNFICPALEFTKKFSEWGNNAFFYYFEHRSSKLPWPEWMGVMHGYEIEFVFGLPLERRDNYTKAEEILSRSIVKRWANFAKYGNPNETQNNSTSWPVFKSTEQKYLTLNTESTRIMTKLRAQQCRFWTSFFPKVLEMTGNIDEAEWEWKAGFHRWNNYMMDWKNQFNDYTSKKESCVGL

Cholinesterase [2] = molecular target: T1, Cholinesterase
Description: Inhibition of human serum BChE using butyrylthiocholine iodide as a substrate preincubated for 20 mins followed by substrate addition by spectrophotometric analysis

[3] = Acute toxicity in zebra fish embryos assessed as lethality measured every 24 hrs for 72 hrs; design: species or system Danio rerio; conditions: zebrafish
Acetylcholinesterase [4] = molecular target: T2, Acetylcholinesterase (Homo sapiens, UniProt P22303)
T2 sequence (P22303 whole entry): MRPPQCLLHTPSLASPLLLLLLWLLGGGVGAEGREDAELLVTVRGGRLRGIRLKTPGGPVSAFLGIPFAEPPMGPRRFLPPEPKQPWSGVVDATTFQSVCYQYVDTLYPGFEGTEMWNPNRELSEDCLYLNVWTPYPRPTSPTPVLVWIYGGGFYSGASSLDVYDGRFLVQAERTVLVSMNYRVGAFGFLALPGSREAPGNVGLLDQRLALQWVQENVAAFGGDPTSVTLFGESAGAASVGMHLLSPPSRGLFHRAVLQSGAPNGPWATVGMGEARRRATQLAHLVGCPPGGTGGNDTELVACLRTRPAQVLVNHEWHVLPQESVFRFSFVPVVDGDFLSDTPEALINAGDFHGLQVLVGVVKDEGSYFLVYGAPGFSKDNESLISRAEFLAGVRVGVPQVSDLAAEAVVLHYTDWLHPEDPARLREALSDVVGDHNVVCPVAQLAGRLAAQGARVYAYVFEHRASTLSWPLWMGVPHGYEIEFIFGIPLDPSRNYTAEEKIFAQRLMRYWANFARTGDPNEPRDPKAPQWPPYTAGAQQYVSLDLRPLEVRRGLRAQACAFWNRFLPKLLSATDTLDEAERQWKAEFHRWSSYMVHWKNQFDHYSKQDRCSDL
Description: Inhibition of human recombinant AChE using acetylthiocholine iodide as a substrate preincubated for 20 mins followed by substrate addition by spectrophotometric analysis

Cholinesterase [5] = molecular target: T1, Cholinesterase; test: Potency index, ratio of huprine-Y IC50 to test compound IC50 for inhibition of human serum BChE using butyrylthiocholine iodide as a substrate preincubated for 20 mins followed by substrate addition by spectrophotometric analysis; format: cell-free
[6] = Kinetic solubility of the compound in DMSO/PBS buffer measured after 2 hrs by nephalometric analysis; format: physicochemical; conditions: DMSO/PBS buffer, read-out: Kinetic_solubility
[7] = Acute toxicity in zebra fish embryos assessed as lethality at 12.5 to 100 uM measured every 24 hrs for 72 hrs relative to control; design: species or system Danio rerio; conditions: zebrafish, dose 12.5-100 µM, read-out: Activity
[8] = Antioxidant activity assessed as free radical scavenging activity at 500 uM incubated for 30 mins under dark condition by DPPH assay; format: functional
[9] = molecular target: Amyloid-beta precursor protein (Homo sapiens) (UniProt P05067); test: Inhibition of amyloid beta (1 to 42) (unknown origin) aggregation in Escherichia coli BL21 (DE3) at 10 uM incubated overnight by thioflavin S based fluorescence analysis relative to control
Amyloid-beta precursor protein (Homo sapiens), sequence (P05067 whole entry): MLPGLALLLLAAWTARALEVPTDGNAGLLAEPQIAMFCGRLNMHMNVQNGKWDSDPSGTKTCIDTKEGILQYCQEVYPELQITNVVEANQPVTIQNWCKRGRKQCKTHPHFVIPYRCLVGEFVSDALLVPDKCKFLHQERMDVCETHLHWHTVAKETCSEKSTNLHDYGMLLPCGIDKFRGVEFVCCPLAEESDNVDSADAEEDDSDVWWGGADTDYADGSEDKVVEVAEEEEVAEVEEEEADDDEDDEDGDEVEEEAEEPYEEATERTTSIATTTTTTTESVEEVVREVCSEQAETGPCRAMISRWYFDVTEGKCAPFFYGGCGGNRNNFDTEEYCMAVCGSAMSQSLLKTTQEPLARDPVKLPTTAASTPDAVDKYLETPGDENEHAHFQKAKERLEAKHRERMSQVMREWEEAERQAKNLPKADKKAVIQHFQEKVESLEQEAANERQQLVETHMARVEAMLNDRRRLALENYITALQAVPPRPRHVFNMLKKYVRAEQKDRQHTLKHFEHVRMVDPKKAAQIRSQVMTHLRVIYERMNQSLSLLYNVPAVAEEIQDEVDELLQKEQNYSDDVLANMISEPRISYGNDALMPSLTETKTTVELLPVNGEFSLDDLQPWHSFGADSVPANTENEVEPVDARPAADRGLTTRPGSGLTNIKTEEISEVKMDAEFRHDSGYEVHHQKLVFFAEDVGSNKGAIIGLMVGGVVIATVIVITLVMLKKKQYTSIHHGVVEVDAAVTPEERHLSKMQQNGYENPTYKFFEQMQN

Acetylcholinesterase [10] = molecular target: T2, Acetylcholinesterase; test: Potency index, ratio of rhein-huprine hybrid IC50 to test compound IC50 for inhibition of human recombinant AChE using acetylthiocholine iodide as a substrate preincubated for 20 mins followed by substrate addition by spectrophotometric analysis
[11] = Neurotoxicity in mouse HT-22 cells assessed as decrease in cell viability at up to 25 uM by MTT assay; format: cell-based
Acetylcholinesterase [12] = molecular target: T2, Acetylcholinesterase; test: Potency index, ratio of donepezil IC50 to test compound IC50 for inhibition of human recombinant AChE using acetylthiocholine iodide as a substrate preincubated for 20 mins followed by substrate addition by spectrophotometric analysis
[13] = Permeability of the compound in PBS/EtOH by PAMPA-BBB assay; format: ADME; conditions: read-out: permeability
Beta-secretase 1 [14] = molecular target: T3, Beta-secretase 1 (Homo sapiens, UniProt P56817); test: Inhibition of human recombinant BACE-1 expressed in Escherichia coli at 10 uM using panvera peptide as a substrate incubated for 1 hr by fluorescence analysis relative to control
T3 sequence (P56817 whole entry): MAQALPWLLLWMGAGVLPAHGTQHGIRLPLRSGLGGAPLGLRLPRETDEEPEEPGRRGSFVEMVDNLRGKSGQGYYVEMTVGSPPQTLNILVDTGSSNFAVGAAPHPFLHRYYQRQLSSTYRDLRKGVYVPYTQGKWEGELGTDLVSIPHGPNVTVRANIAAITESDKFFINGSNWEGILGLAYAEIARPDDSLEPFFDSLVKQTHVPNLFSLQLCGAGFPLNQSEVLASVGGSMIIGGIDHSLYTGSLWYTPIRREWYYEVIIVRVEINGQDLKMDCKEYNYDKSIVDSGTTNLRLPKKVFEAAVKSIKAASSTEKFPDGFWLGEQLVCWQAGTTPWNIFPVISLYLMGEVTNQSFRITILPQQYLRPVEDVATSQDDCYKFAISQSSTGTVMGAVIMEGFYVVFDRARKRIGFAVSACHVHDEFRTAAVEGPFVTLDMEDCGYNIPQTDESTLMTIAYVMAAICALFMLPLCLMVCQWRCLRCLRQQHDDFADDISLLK

[15] = molecular target: Microtubule-associated protein tau (Homo sapiens) (UniProt P10636); test: Inhibition of tau aggregation (unknown origin) in Escherichia coli BL21 (DE3) at 10 uM incubated overnight by thioflavin S based fluorescence analysis relative to control
Microtubule-associated protein tau (Homo sapiens), sequence (P10636 whole entry): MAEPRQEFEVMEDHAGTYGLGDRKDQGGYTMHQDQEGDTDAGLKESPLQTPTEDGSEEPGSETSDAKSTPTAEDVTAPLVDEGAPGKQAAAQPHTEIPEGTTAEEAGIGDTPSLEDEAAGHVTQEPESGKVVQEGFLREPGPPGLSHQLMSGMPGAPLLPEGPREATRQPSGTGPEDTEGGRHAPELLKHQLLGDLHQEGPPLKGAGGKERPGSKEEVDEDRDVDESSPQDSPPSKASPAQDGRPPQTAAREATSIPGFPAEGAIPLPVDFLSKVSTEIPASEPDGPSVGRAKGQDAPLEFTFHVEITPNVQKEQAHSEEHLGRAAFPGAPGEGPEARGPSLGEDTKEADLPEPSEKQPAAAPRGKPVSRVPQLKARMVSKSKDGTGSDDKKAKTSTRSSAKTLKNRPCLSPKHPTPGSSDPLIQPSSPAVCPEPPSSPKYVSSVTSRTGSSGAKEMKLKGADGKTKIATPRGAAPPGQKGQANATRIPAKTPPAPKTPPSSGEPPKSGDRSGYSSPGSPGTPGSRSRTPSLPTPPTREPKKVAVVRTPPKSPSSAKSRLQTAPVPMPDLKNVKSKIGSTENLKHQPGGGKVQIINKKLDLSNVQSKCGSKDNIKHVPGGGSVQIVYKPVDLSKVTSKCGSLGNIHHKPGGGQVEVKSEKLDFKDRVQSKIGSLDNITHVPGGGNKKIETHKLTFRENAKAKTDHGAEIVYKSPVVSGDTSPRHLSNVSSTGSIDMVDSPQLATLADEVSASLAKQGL

Cholinesterase [16] = molecular target: T1, Cholinesterase; test: Potency index, ratio of donepezil IC50 to test compound IC50 for inhibition of human serum BChE using butyrylthiocholine iodide as a substrate preincubated for 20 mins followed by substrate addition by spectrophotometric analysis; format: cell-free
Mus musculus [17] = test: Effect on neuroinflammation in SAMP8 mouse assessed as decrease in IL-1 beta gene expression hippocampus tissue at 2 mg/kg, po measured after 4 weeks by RT-PCR analysis; format: functional, organism-based
Mus musculus [18] = test: Cognitive enhancing effect in SAMP8 mouse assessed as improvement of long term retrieval by measuring discrimination index at 2 mg/kg, po administered for 4 weeks followed by 10 mins acquisition trail and measured after 24 hrs by novel object recognition test; format: functional, organism-based
Mus musculus [19] = test: Modulation of oxidative stress in SAMP8 mouse assessed as increase in heme oxygenase 1 (Hmox1) gene expression in hippocampus tissue at 2 mg/kg, po measured after 4 weeks by RT-PCR analysis; format: functional, organism-based
Mus musculus [20] = test: Effect on amyloid pathology in hippocampal tissue of SAMP8 mouse assessed as decrease in Bace-1 gene expression at 2 mg/kg, po measured after 4 weeks by RT-PCR analysis; format: functional, organism-based
Mus musculus [21] = test: In vivo inhibition of BACE-1 in hippocampal tissue of SAMP8 mouse assessed as increase in sAPP alpha levels at 2 mg/kg, po measured after 4 weeks by western blot analysis; format: functional, organism-based; conditions: Hippocampus
Mus musculus [22] = test: Effect on amyloid pathology in hippocampal tissue of SAMP8 mouse assessed as increase in neprilysin (Nep) gene expression at 2 mg/kg, po measured after 4 weeks by RT-PCR analysis; format: functional, organism-based
Beta-secretase 1 [23] = molecular target: T3, Beta-secretase 1; test: Inhibition of human recombinant BACE-1 expressed in Escherichia coli using panvera peptide as a substrate incubated for 1 hr by fluorescence analysis
Mus musculus [24] = test: Cognitive enhancing effect in SAMP8 mouse assessed as reversal of spatial memory impairment by measuring discrimination index at 2 mg/kg, po administered for 4 weeks by object location test; format: functional, organism-based
Mus musculus [25] = test: Effect on neuroinflammation in SAMP8 mouse assessed as decrease in TNF-alpha gene expression hippocampus tissue at 2 mg/kg, po measured after 4 weeks by RT-PCR analysis; format: functional, organism-based
Mus musculus [26] = test: Effect on amyloid pathology in hippocampal tissue of SAMP8 mouse assessed as increase in Adam10 gene expression at 2 mg/kg, po measured after 4 weeks by RT-PCR analysis; format: functional, organism-based
Mus musculus [27] = test: Effect on neuroinflammation in SAMP8 mouse assessed as reduction in Cxcl10 gene expression hippocampus tissue at 2 mg/kg, po measured after 4 weeks by RT-PCR analysis; format: functional, organism-based
Mus musculus [28] = test: Cognitive enhancing effect in SAMP8 mouse assessed as improvement of short term retrieval by measuring discrimination index at 2 mg/kg, po administered for 4 weeks followed by 10 mins acquisition trail and measured after 2 hrs by novel object recognition test; format: functional, organism-based
HT-22 = test: Neuroprotective activity against glutamate induced neuronal death in mouse HT-22 cells assessed as increase in cell viability at 1 to 25 uM by MTT assay; format: functional, cell-based; conditions: dose 1-25 µM
Mus musculus [29] = test: In vivo inhibition of GSK3 beta in SAMP8 mouse assessed as reduction in tau phosphorylation at Ser 404 residue at 2 mg/kg, po measured after 4 weeks by western blot analysis; format: functional, organism-based
[30] = Toxicity in SAMP8 mouse assessed as toxic effects at 2 mg/kg, po for 4 weeks; format: organism-based; conditions: in vivo, 672 h
Mus musculus [31] = test: Effect on neuroinflammation in SAMP8 mouse assessed as decrease in IL-6 gene expression hippocampus tissue at 2 mg/kg, po measured after 4 weeks by RT-PCR analysis; format: functional, organism-based
Mus musculus [32] = test: Effect on amyloid pathology in hippocampal tissue of SAMP8 mouse assessed as increase in insulin-degrading enzyme (Ide) gene expression at 2 mg/kg, po measured after 4 weeks by RT-PCR analysis; format: functional, organism-based
[33] = Toxicity in SAMP8 mouse assessed as mortality at 2 mg/kg, po for 4 weeks; format: organism-based; conditions: in vivo, 672 h
Mus musculus [34] = test: In vivo inhibition of BACE-1 in hippocampal tissue of SAMP8 mouse assessed as reduction in sAPPbeta levels at 2 mg/kg, po measured after 4 weeks by Western blot analysis; format: functional, organism-based; conditions: Hippocampus
Mus musculus [35] = test: Effect on synaptic plasticity in SAMP8 mouse assessed as increase in SYN protein levels in hippocampus tissue at 2 mg/kg, po measured after 4 weeks by western blot analysis; format: functional, organism-based
Mus musculus [36] = test: Effect on synaptic plasticity in SAMP8 mouse assessed as increase in PSD95 protein levels in hippocampus tissue at 2 mg/kg, po measured after 4 weeks by western blot analysis; format: functional, organism-based
Mus musculus [37] = test: Modulation of oxidative stress in SAMP8 mouse assessed as increase in cox-2 gene expression in hippocampus tissue at 2 mg/kg, po measured after 4 weeks by RT-PCR analysis; format: functional, organism-based
[38] = Metal chelating activity assessed as compound-Cu2+ complex formation at ratio of 5:1 by pyrocatechol violet assay; conditions: dose 3.0 mM
[39] = Metal chelating activity assessed as compound-Fe2+ complex formation at 3 mM in presence of FeCl2 by UV-Vis spectra analysis
[40] = Metal chelating activity assessed as compound-Cu2+ complex formation at ratio of 2:1 by pyrocatechol violet assay; conditions: dose 3.0 mM
[41] = Neurotoxicity in mouse HT-22 cells assessed as decrease in cell viability at up to 10 uM by MTT assay; format: cell-based
[42] = Metal chelating activity assessed as compound-Cu2+ complex formation at 3 mM in presence of CuSO4 by UV-Vis spectra analysis
[43] = Metal chelating activity assessed as compound-Zn2+ complex formation at 3 mM in presence of ZnCl2 by UV-Vis spectra analysis
[44] = Metal chelating activity assessed as compound-Cu2+ complex formation at ratio of 0.5:1 by pyrocatechol violet assay; conditions: dose 3.0 mM
[45] = Metal chelating activity assessed as compound-Cu2+ complex formation at ratio of 1:1 by pyrocatechol violet assay; conditions: dose 3.0 mM

Work on `COc1cc(CNC(=O)CCCCCCCCNc2c3c(nc4cc(Cl)ccc24)CC2C=C(C)CC3C2)ccn1` (stereo not given) yielded a Ratio IC50 (Cholinesterase [1]) of 7, an IC50 (Cholinesterase [2]) of 88.5 nM and an LC50 at 72 h [3] of 7100 nM. It also gave an IC50 (Acetylcholinesterase [4]) of 1.25 nM, a Ratio IC50 (Cholinesterase [5]) of 2 and a solubility kinetic at 2 h [6] of 5.1 µg/mL (≈ 9.09 µM). For the same molecule, the mortality at 24 h, 100 µM [7] was 75%, the Activity [8] was “inactive” and the inhibition [9] was 29.4%. The Ratio IC50 (Acetylcholinesterase [10]) was under 9, the Activity [11] was “Non-Toxic” and the Ratio IC50 (Acetylcholinesterase [12]) was under 65. It also gave a Papp [13] of 8.2 ×10⁻⁶ cm/s, an inhibition (Beta-secretase 1 [14]) of 26.5% and an inhibition [15] of 41.6%. The Ratio IC50 (Cholinesterase [16]) was 79.

In the case of `CC1=CC2Cc3nc4cc(Cl)ccc4c(NCCCCCCCCCNC(=O)c4cc(O)cc(O)c4)c3C(C1)C2` (stereo not given), the Ratio IC50 (Cholinesterase [1]) is reported as 7, the Activity (Mus musculus [17]) is reported as “Active” and the Activity (Mus musculus [18]) is reported as “Active”. For the same molecule, the IC50 (Cholinesterase [2]) was 43 nM, the Activity (Mus musculus [19]) was “Active” and the Activity (Mus musculus [20]) was “Active”. For the same molecule, the Activity (Mus musculus [21]) was “Active”, the Activity (Mus musculus [22]) was “Active” and the IC50 (Beta-secretase 1 [23]) was 2710 nM. The LC50 at 72 h [3] was over 100000 nM, the Activity (Mus musculus [24]) was “Active” and the Activity (Mus musculus [25]) was “Active”. The Activity (Mus musculus [26]) was “Active”, the IC50 (Acetylcholinesterase [4]) was 2.57 nM and the Ratio IC50 (Cholinesterase [5]) was 2. The solubility kinetic at 2 h [6] was 10.8 µg/mL (≈ 19.2 µM), the Activity (Mus musculus [27]) was “Active” and the Activity (Mus musculus [28]) was “Active”. The Activity (HT-22) was “inactive”, the inhibition (Mus musculus [29]) was “Active” and the Activity [8] was “inactive”. For the same molecule, the Activity [30] was “Non-Toxic”, the Activity (Mus musculus [31]) was “Active” and the inhibition [9] was 49.5%. For the same molecule, the Activity (Mus musculus [32]) was “inactive”, the Activity [33] was “Non-Toxic” and the Activity (Mus musculus [34]) was “Active”. The Ratio IC50 (Acetylcholinesterase [10]) was under 9, the Activity (Mus musculus [35]) was “Active” and the Activity (Mus musculus [36]) was “Active”. For the same molecule, the Activity [11] was “Non-Toxic”, the Ratio IC50 (Acetylcholinesterase [12]) was under 65 and the Papp [13] was 9.4 ×10⁻⁶ cm/s. For the same molecule, the Activity (Mus musculus [37]) was “inactive”, the inhibition [15] was 65.8% and the Ratio IC50 (Cholinesterase [16]) was 79.

For `CC1=CC2Cc3nc4cc(Cl)ccc4c(NCCCCCCCCCNS(=O)(=O)c4cn[nH]c4)c3C(C1)C2` (stereo not given), the Ratio IC50 (Cholinesterase [1]) was 7, the IC50 (Cholinesterase [2]) was 50.3 nM and the Activity [38] was “Active”. For the same molecule, the IC50 (Beta-secretase 1 [23]) was 10800 nM, the LC50 at 72 h [3] was over 100000 nM and the IC50 (Acetylcholinesterase [4]) was 2.4 nM. The Activity [39] was “Active”, the Ratio IC50 (Cholinesterase [5]) was 2 and the Activity [40] was “Active”. For the same molecule, the solubility kinetic at 2 h [6] was 5.7 µg/mL (≈ 10.2 µM), the Activity [41] was “Toxic” and the Activity [42] was “Active”. For the same molecule, the Activity (HT-22) was “inactive”, the Activity [43] was “Active” and the Activity [44] was “Active”. For the same molecule, the Activity [8] was “inactive”, the Activity [45] was “Active” and the inhibition [9] was 35.3%. It also gave a Ratio IC50 (Acetylcholinesterase [10]) of under 9, a Ratio IC50 (Acetylcholinesterase [12]) of under 65 and a Papp [13] of 6.3 ×10⁻⁶ cm/s. For the same molecule, the inhibition [15] was 55.5% and the Ratio IC50 (Cholinesterase [16]) was 79.
